# Reference: ChEMBL document CHEMBL1138860, “Design, synthesis, and evaluation of a potent, cell-permeable, conformationally constrained second mitochondria derived activator of caspase (Smac) mimetic” (J Med Chem, 2006)
# Columns and labels:
# MDA-MB-231 [1] = test: Inhibition of MDA-MB-231 cell growth by WST assay; type: functional, cell-based; details: Homo sapiens
# MDA-MB-231 [2] = test: Induction of cell death in MDA-MB-231 by Trypan blue exclusion assay at 1 uM 4 days; type: functional, Homo sapiens
# MDA-MB-231 [3] = test: Induction of cell death in MDA-MB-231 by Trypan blue exclusion assay at 100 nM after 4 days; type: functional, Homo sapiens
IC50 (MDA-MB-231 [1]) [µM],SMILES,Activity (MDA-MB-231 [2]) [%],Activity (MDA-MB-231 [3]) [%]
3,CC[C@@H](C(=O)N[C@H]1CCC[C@H]2CC[C@@H](C(=O)NC(c3ccccc3)c3ccccc3)N2C1=O)N(C)C,–,–
50,CC[C@H](N)C(=O)N[C@H]1CCC[C@H]2CC[C@@H](C(=O)NC(c3ccccc3)c3ccccc3)N2C1=O,–,–
65,C[C@H](O)C(=O)N[C@H]1CCC[C@H]2CC[C@@H](C(=O)NC(c3ccccc3)c3ccccc3)N2C1=O,–,–

SMILES,IC50 (MDA-MB-231 [1]) [µM],Activity (MDA-MB-231 [2]) [%],Activity (MDA-MB-231 [3]) [%]
CC[C@H](NC)C(=O)N[C@H]1CCC[C@H]2CC[C@@H](C(=O)NC(c3ccccc3)c3ccccc3)N2C1=O,0.1,80,40
